In patent US4298613A, “Agricultural heterocyclic sulfenamides” (E. I. Du Pont de Nemours and Company, priority 1980, dated 1981):

Experiments:
Rhizoctonia solani = Rhizoctonia solani control on cotton, simulated in-the-row soil application (Example 12); assay type: in vivo; conditions: 15 kg/ha, 8 days
From the text: Rhizoctonia solani-infested soil was placed in a 900 cc cup. Compounds of this invention were mixed at a rate of 15 kg/ha in a section 2" wide×2" deep×4" long to simulate an in-the-row application. Five cotton seeds were planted in the treated soil. After 8 days, the cotton plants were removed and rated for disease control.

Venturia inaequalis [1] = experiment: Control of apple scab in a preventive test (Example 13); assay type: in vivo; conditions: 20 ppm, apple seedlings, incubated 10-12 days
Method: (§1) Compounds of this invention are dissolved in acetone in an amount equal to 6% of the final volume and then suspended at a concentration of 20 ppm in purified water containing 25 ppm of the surfactant Alkanol® XC (sodium alkyl naphthalene sulfonate). This suspension is sprayed to the point of run-off on apple seedlings. The following day, the plants are inoculated with a spore suspension of the fungus Venturia inaequalis and incubated in a growth room for 10-12 days. Disease ratings are then made. […] Phytotoxicity in the form of foliar burn was observed on some of the plants in association with disease control.

Venturia inaequalis [2] = experiment: Control of apple scab in a residual wash-off test (Example 14); assay type: in vivo; conditions: 20 ppm, apple seedlings, 1/2 inch simulated rainfall, incubated 10-12 days
Method: as §1, with “day, 1/2 inch of simulated rainfall is applied to the foliage of the plants. When the foliage is dry,” for “day,”

Venturia inaequalis [3] = experiment: Control of apple scab in a photostability test (Example 15); assay type: in vivo; conditions: 20 ppm, apple seedlings, 3500 foot candles xenon arc 16 hours, incubated 10-12 days
Method: Compounds of this invention are dissolved in acetone in an amount equal to 6% of the final volume and then suspended at a concentration of 20 ppm in purified water containing 25 ppm of the surfactant Alkanol® XC (sodium alkyl naphthalene sulfonate). This suspension is sprayed to the point of run-off on apple seedlings. When the foliage is dry, the plants are exposed to 3500 foot candles of light from a xenon arc source for a period of 16 hours. This light source approximates the spectrum of natural sunlight, and is used to assess photostability of the compounds of this invention on plant foliage. The following day, the plants are inoculated with a spore suspension of the fungus Venturia inaequalis and incubated in a growth room for 10-12 days. Disease ratings are then made. As shown in the following table, most of the compounds of this invention provided good disease control as the treated plants had fewer apple scab lesions in contrast to untreated plants which were covered with scab lesions. Phytotoxicity in the form of foliar burn was observed on some of the plants in association with disease control.

Erysiphe cichoracearum [4] = experiment: Control of cucumber powdery mildew in a preventive test (Example 16); assay type: in vivo; conditions: 20 ppm, cucumber seedlings, incubated 7 days
Method: (§2) Compounds of this invention are dissolved in acetone in an amount equal to 6% of the final volume and then suspended at a concentration of 20 ppm in purified water containing 25 ppm of the surfactant Alkanol® XC (sodium alkyl naphthalane sulfonate). This suspension is sprayed to the point of run-off on cucumber seedlings. The following day, the plants are inoculated with a spore suspension of the fungus Erysiphe cichoracearum and incubated in a growth room for 7 days. Disease ratings are then made.

Erysiphe cichoracearum [5] = experiment: Control of cucumber powdery mildew in a residual wash-off test (Example 17); assay type: in vivo; conditions: 20 ppm, cucumber seedlings, 1/2 inch simulated rainfall, incubated 7 days
Method: as §2, with “naphthalene” for “naphthalane”, “day, 1/2 inch of simulated rainfall is applied to the foliage of the plants. When the foliage is dry,” for “day,”

Erysiphe cichoracearum [6] = experiment: Control of cucumber powdery mildew in a photostability test (Example 18); assay type: in vivo; conditions: 20 ppm, cucumber seedlings, 3500 foot candles xenon arc 16 hours, incubated 7 days
Method: as §2, with “alkyl naphthalene” for “alkyl naphthalane”, “run-off in” for “run-off on”, “seedlings. When the foliage is dry, the plants are exposed to 3500 foot candles of light from a xenon arc source for a period of 16 hours. This light source approximates the spectrum of natural sunlight, and is used to assess photostability of the compounds of this invention on plant foliage.” for “seedlings.”

[7] = system: Puccinia graminis var. tritici; assay type: in vivo; conditions: 20 ppm, wheat seedlings, 24 hours humidity chamber at 20° C. then 7 days
[8] = system: Puccinia graminis var. tritici; assay type: in vivo; conditions: 20 ppm, wheat seedlings, 1/2 inch simulated rainfall, 24 hours humidity chamber then 7 days
[9] = system: Puccinia graminis var. tritici; assay type: in vivo; conditions: 20 ppm, wheat seedlings, 3500 foot candles xenon arc 16 hours, 24 hours humidity chamber then 7 days
Phytophthora infestans = conditions: 5 ppm, tomato seedlings, incubated 4 days
Helminthosporium oryzae = experiment: Control of rice Helminthosporium in a seed treatment test (Example 11); conditions: 1.3 g per kilogram of seed, 18 days, rating based on percent germination
Method: Rice seed infected with Helminthosporium oryzae are treated with compounds of this invention at a rate of 1.3 g per kilogram of seed. This is accomplished by soaking infected seed for 1 minute in a suspension of the indicated compound dissolved in a solution containing 4% glycerine, 4% water, 0.02% Tween®20*, and 92% acetone. Treated seeds are placed on moist blotters and enclosed in plastic bags for 18 days at which time disease ratings are made based on percent germination.
*Tween®20 is a trademark of ICI Americas, Inc. and consists of polyoxytheylene (20) sorbitan monolaurate.

two spotted mites = experiment: Two-spotted mite mortality on red kidney bean plants (Example 9); assay type: in vivo; conditions: Tetranychus urticae, 48 h, read-out: % Mortality (2 days)
Method: Test units consisted of plant pots containing two red kidney bean plants in the two-leaf stage per pot. The plants were infested with two spotted mites and sprayed to run-off with dispersions of N-[2-chloro-5-(trifluoromethyl)phenyl]-N-[2,4-dinitro-6-(trifluoromethyl)phenyl]-3-nitro-2-pyridinesulfenamide at the indicated concentrations. Dispersions were made by dissolving weighed quantities of the active ingredients in 10 ml of acetone and then diluting to volume with water containing 1:3000 of a surfactant, DuPonol® (a tradename of E. I. du Pont de Nemours & Co. for sodium alcohol sulfonate). Mortality was evaluated two days after spraying.

house fly adults = experiment: House fly adult mortality (Example 10); assay type: in vivo, Musca domestica (house fly); conditions: concentration .01 (unit not given), acetone dispersion, 1 day, 25°±2° C., 50% RH
Method: Twenty-five house fly adults are secured in screened stainless steel ring cages and treated with acetone dispersions of N-[2-chloro-5-(trifluoromethyl)-phenyl]-N-[2,4-dinitro-6-(trifluoromethyl)phenyl]-3-nitro-2-pyridinesulfenamide at the indicated concentrations. The stock dispersion is prepared by dissolving appropriately weighed quantities of active ingredient in predetermined quantities of acetone. Further diluting with acetone yields the desired concentrations. After treating, the units are kept in a room maintained at 25°±2° C., 50% RH. Results are recorded at the end of 1 day.

Row | Compound | % Rhizoctonia solani control (Rhizoctonia solani) | % Control Apple Scab in a Preventive Test (Venturia inaequalis [1]) | % Control of Apple Scab in a Residual Wash-Off Test (Venturia inaequalis [2]) | % Control Apple Scab in a Photo-stability test (Venturia inaequalis [3]) | % Control Cucumber Powdery Mildew in a Preventive Test (Erysiphe cichoracearum [4]) | % Control Cucumber Powdery Mildew in a Residual Wash-Off Test (Erysiphe cichoracearum [5]) | % Control Cucumber Powdery Mildew in a Photostability Test (Erysiphe cichoracearum [6]) | % Control Wheat Rust in a Preventive Test [7] | % Control Wheat Rust in a Residual Wash-off Test [8] | % Control Wheat Rust in a Photostability Test [9] | % Control Tomato Late Blight in a Preventive Test (Phytophthora infestans) | % Control of rice Helminthosporium in a seed treatment test (Helminthosporium oryzae) | mortality at 0.00025 % (two spotted mites) | % Mortality (house fly adults)
1 | O=[N+]([O-])c1cc([N+](=O)[O-])c(N(Sc2nc3ccccc3s2)c2cc(C(F)(F)F)ccc2Cl)c(C(F)(F)F)c1 [N-[2-chloro-5-(trifluoromethyl)phenyl]-N-[2,4-dinitro-6-(trifluoromethyl)phenyl]-2-benzothiazolesulfenamide] | 50% | 43% | 43% | 15% | 60% | 68% | 15% | 97% | 85% | 83% | 0% | 0% | – | –
2 | O=[N+]([O-])c1cc([N+](=O)[O-])c(N(Sc2ncccc2[N+](=O)[O-])c2cc(C(F)(F)F)ccc2Cl)c(C(F)(F)F)c1 [N-[2-chloro-5-(trifluoromethyl)phenyl]-N-[2,4-dinitro-6-(trifluoromethyl)phenyl]-3-nitro-2-pyridinesulfenamide] | 100% | 100% | 100% | 70% | 100% | 90% | 94% | 80% | 98% | 95% | 70% | 90% | 100% | 90%
